The text below walks through data of USRE37781E1, “Substituted cyclic carbonyls and derivatives thereof useful as retroviral protease inhibitors” (DuPont Pharmaceuticals Company, priority 1991, dated 2002).

What is called Ki is a dissociation constant, usually derived from enzyme kinetics or from competition with a known ligand. As a reminder, the IC90 is the concentration needed for an effect of 90%.

SMILES strings stand for the structures. ≈ marks a conversion by molar mass, not a printed value.

The target of the first assay is T1, HIV protease (Human immunodeficiency virus type 1 group M subtype B, UniProt P04585).
T1 construct: plasmid containing HIV protease under the control of an inducible T7 promoter; made in house; host or cells: E. coli (inclusion bodies, T7 promoter)
Put plainly: biochemical. Details: species or system HIV-1. The note with it: Table 1e; read-out: Ki. Here is the method: HIV Protease Inhibition Assay—Spectroscopic Method
Inclusion bodies were solubilized in 8M urea, 50 mM tris pH 8.0. Protease activity was recovered by dilution 20-fold into buffer containing 50 mM sodium acetate pH 5.5, 1 mM EDTA, 10% glycerol and 5% ethylene glycol. Enzyme was used at a final concentration of 1.0-10 ug/ml.
Stock solutions of 10 mM were prepared in DMSO.
All further dilutions were done in DMSO.
For `O=C1N(Cc2ccccc2)C(CCc2ccccc2)[C@@H](O)[C@@H](Cc2ccccc2)N1Cc1ccccc1` (some centres unmarked) [Example 8AD], the Ki was in the range of 10 to 1000 nM.
Still for that read-out and setting: next, `NC(=O)c1cccc(CN2C(=O)N(Cc3cccc(C(N)=O)c3)C(Cc3ccccc3)C(O)C2CCc2ccccc2)c1` (centres unmarked) [Example 8AP]: more than 1000 nM; `O=C1N(CC2CC2)C(C(F)Cc2ccccc2)[C@@H](O)[C@@H](Cc2ccccc2)N1CC1CC1` (some centres unmarked) [Example 8B]: 10 to 1000 nM.
Take `COCCOCO[C@H]1[C@@H](Cc2ccccc2)N(Cc2ccc3ccccc3c2)C(=O)N(Cc2ccc3ccccc3c2)[C@@H]1C(F)Cc1ccccc1` (some centres unmarked) [Example 8D]: the Ki is 10 to 1000 nM.
Take `O=C1N(Cc2cccc(OCc3ccccc3)c2)C(Cc2ccccc2)C(O)C(C(F)Cc2ccccc2)N1Cc1cccc(OCc2ccccc2)c1` (centres unmarked) [Example 8E]: the inhibition constant Ki is 10 to 1000 nM.

Still in this assay, the particulars now being: Table 2A; read-out: Ki.
For the molecule `CC(C)=CCN1C(=O)N(C)C(Cc2ccccc2)C(O)C(O)C1Cc1ccccc1` (centres unmarked) [Example 2D], the Ki is 10 to 1000 nM.
As to `O=C1N(Cc2ccc(F)cc2)C(Cc2ccccc2)C(O)C(O)C(Cc2ccccc2)N1Cc1ccc(F)cc1` (centres unmarked) [Example 2E], the Ki is less than 10 nM.
On the same count and under the same terms, the result for `O=C1N(Cc2ccccc2)C(Cc2ccccc2)C(O)C(O)C(Cc2ccccc2)N1CC1CC1` (centres unmarked) [Example 2F] reads less than 10 nM.

Staying with this assay, now noted: Table 2j; read-out: Ki.
Consider `O=C1N(Cc2ccccc2)C(Cc2ccccc2)C(OCc2ccccc2)C2C(Cc3ccccc3)N12` (centres unmarked) [Example 21C], for which the Ki was 10 to 1000 nM.

The assay is the same for the next values; noted with them: Table 2k; read-out: Ki.
For the molecule `O=C1N(Cc2cccc(O)c2)C(Cc2ccccc2)C(O)C(Cc2ccccc2)N1Cc1cccc(O)c1` (centres unmarked) [Example 22A], the Ki fell in the range of 10 to 1000 nM.

The same assay, now with this note: Table 1d, upper part; read-out: Ki.
As for `C=CCN1C(=O)N(CC=C)C(Cc2ccccc2)C(OC(C)=O)C(O)C1Cc1ccccc1` (centres unmarked) [Example 7A], the Ki was more than 1000 nM.
On to `C=CCN1C(=O)N(CC=C)C(Cc2ccccc2)C2OS(=O)OC2C1Cc1ccccc1` (centres unmarked) [Example 7C], for which the inhibition constant Ki is less than 10 nM.
The same measure, in the same setting: the result for `C=CCN1C(=O)N(CCCC)C(Cc2ccccc2)C2OS(=O)OC2C1Cc1ccccc1` (centres unmarked) [Example 7D] reads less than 10 nM; that for `O=C1N(CC2CC2)C(Cc2ccccc2)C2OS(=O)OC2C(Cc2ccccc2)N1CC1CC1` (centres unmarked) [Example 7F], less than 10 nM.
On the same count and under the same terms, next, `O=C1N(CC2CC2)C(Cc2ccccc2)C2OC(=S)OC2C(Cc2ccccc2)N1CC1CC1` (centres unmarked) [Example 7I]: 10 to 1000 nM.
On the same count and under the same terms, the result for `CC(=O)OC1C(OC(C)=O)C(Cc2ccccc2)N(Cc2ccc3ccccc3c2)C(=O)N(Cc2ccc3ccccc3c2)C1Cc1ccccc1` (centres unmarked) [Example 7J] reads 10 to 1000 nM; that for `CC(=O)OC1C(O)C(Cc2ccccc2)N(Cc2ccc3ccccc3c2)C(=O)N(Cc2ccc3ccccc3c2)C1Cc1ccccc1` (centres unmarked) [Example 7K], 10 to 1000 nM.
For `O=C1N(Cc2ccc3ccccc3c2)C(Cc2ccccc2)C2OS(=O)OC2C(Cc2ccccc2)N1Cc1ccc2ccccc2c1` (centres unmarked) [Example 7M], the inhibitory constant (Ki) is less than 10 nM.
Still for that read-out and setting: next, `O=C1N(Cc2ccc3ccccc3c2)C(Cc2ccccc2)C2OC(=S)OC2C(Cc2ccccc2)N1Cc1ccc2ccccc2c1` (centres unmarked) [Example 7N]: more than 1000 nM; `O=C1OC2C(OC1=O)C(Cc1ccccc1)N(Cc1ccc3ccccc3c1)C(=O)N(Cc1ccc3ccccc3c1)C2Cc1ccccc1` (centres unmarked) [Example 7P]: less than 10 nM; `CC1(C)OC2C(O1)C(Cc1ccccc1)N(Cc1ccc3ccccc3c1)C(=O)N(Cc1ccc3ccccc3c1)C2Cc1ccccc1` (centres unmarked) [Example 7R]: more than 1000 nM.
With `CCCC1(OC)OC2C(O1)C(Cc1ccccc1)N(Cc1ccc3ccccc3c1)C(=O)N(Cc1ccc3ccccc3c1)C2Cc1ccccc1` (centres unmarked) [Example 7S], the inhibition constant Ki is more than 1000 nM.
For `O=C1N(Cc2ccc3ccccc3c2)[C@H](Cc2ccccc2)C[C@@H](O)[C@@H](Cc2ccccc2)N1Cc1ccc2ccccc2c1` [Example 7T], the Ki was less than 10 nM.
On the same count and under the same terms, next, `O=C1N(CC2CC2)[C@H](Cc2ccccc2)C[C@@H](O)[C@@H](Cc2ccccc2)N1CC1CC1` [Example 7U]: less than 10 nM; `CS(=O)(=O)OC1C(O)C(Cc2ccccc2)N(Cc2ccc3ccccc3c2)C(=O)N(Cc2ccc3ccccc3c2)C1Cc1ccccc1` (centres unmarked) [Example 7o]: 10 to 1000 nM.

The assay is the same for the next values; noted with them: second table headed Table 2A; read-out: Ki.
Take `CC(C)=CCN1C(=O)N(C)C(Cc2ccccc2)C(O)C(O)C1Cc1ccccc1` (centres unmarked) [Example 2D]: the Ki is 10 to 1000 nM.
As for `O=C1N(Cc2ccc(F)cc2)C(Cc2ccccc2)C(O)C(O)C(Cc2ccccc2)N1Cc1ccc(F)cc1` (centres unmarked) [Example 2E], the Ki is less than 10 nM.
On the same count and under the same terms, next, `O=C1N(Cc2ccccc2)C(Cc2ccccc2)C(O)C(O)C(Cc2ccccc2)N1CC1CC1` (centres unmarked) [Example 2F]: less than 10 nM.

Another assay has as its system HIV-1 (RF) in MT-2 cells. As to the kind of experiment: microbe, parasite or virus in culture. In kind it is cell-based. To be noted: Human immunodeficiency virus 1, MT2, 24 h, Table 1d, upper part; read-out: IC90. In short, it runs like this: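 Read-out: gag and pol viral RNA captured by 5′-biotinylated oligonucleotides on streptavidin-coated wells, detected with alkaline phosphatase-linked reporter oligonucleotides, calibrated against BH10 in vitro transcripts. Virus stocks (RF, MN, IIIB) come from H9 cultures; MT-2 host cells kept in RPMI 1640, 5% FCS.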
As for `C=CCN1C(=O)N(CC=C)C(Cc2ccccc2)C(OC(C)=O)C(O)C1Cc1ccccc1` (centres unmarked) [Example 7A], the IC90 was less than 10 µg/mL.
Consider `C=CCN1C(=O)N(CC=C)C(Cc2ccccc2)C2OS(=O)OC2C1Cc1ccccc1` (centres unmarked) [Example 7C], for which the 90% effect concentration (IC90) was less than 10 µg/mL.
Regarding `C=CCN1C(=O)N(CCCC)C(Cc2ccccc2)C2OS(=O)OC2C1Cc1ccccc1` (centres unmarked) [Example 7D], the 90% effect concentration (IC90) was in the range of 10 to 100 µg/mL (≈ 21.3 to 213 µM).
Same read-out and setting: the result for `O=C1N(CC2CC2)C(Cc2ccccc2)C2OS(=O)OC2C(Cc2ccccc2)N1CC1CC1` (centres unmarked) [Example 7F] reads less than 10 µg/mL; that for `O=C1N(CC2CC2)C(Cc2ccccc2)C2OC(=S)OC2C(Cc2ccccc2)N1CC1CC1` (centres unmarked) [Example 7I], less than 10 µg/mL; that for `CC(=O)OC1C(OC(C)=O)C(Cc2ccccc2)N(Cc2ccc3ccccc3c2)C(=O)N(Cc2ccc3ccccc3c2)C1Cc1ccccc1` (centres unmarked) [Example 7J], more than 100 µg/mL.
Turning to `CC(=O)OC1C(O)C(Cc2ccccc2)N(Cc2ccc3ccccc3c2)C(=O)N(Cc2ccc3ccccc3c2)C1Cc1ccccc1` (centres unmarked) [Example 7K], the IC90 was more than 100 µg/mL.
Same read-out and setting: next, `O=C1N(Cc2ccc3ccccc3c2)C(Cc2ccccc2)C2OS(=O)OC2C(Cc2ccccc2)N1Cc1ccc2ccccc2c1` (centres unmarked) [Example 7M]: less than 10 µg/mL; `O=C1N(Cc2ccc3ccccc3c2)C(Cc2ccccc2)C2OC(=S)OC2C(Cc2ccccc2)N1Cc1ccc2ccccc2c1` (centres unmarked) [Example 7N]: more than 100 µg/mL; `O=C1OC2C(OC1=O)C(Cc1ccccc1)N(Cc1ccc3ccccc3c1)C(=O)N(Cc1ccc3ccccc3c1)C2Cc1ccccc1` (centres unmarked) [Example 7P]: less than 10 µg/mL.
Take `CC1(C)OC2C(O1)C(Cc1ccccc1)N(Cc1ccc3ccccc3c1)C(=O)N(Cc1ccc3ccccc3c1)C2Cc1ccccc1` (centres unmarked) [Example 7R]: the IC90 is more than 100 µg/mL.
With `CCCC1(OC)OC2C(O1)C(Cc1ccccc1)N(Cc1ccc3ccccc3c1)C(=O)N(Cc1ccc3ccccc3c1)C2Cc1ccccc1` (centres unmarked) [Example 7S], the IC90 was more than 50 µg/mL.
On the same count and under the same terms, next, `O=C1N(Cc2ccc3ccccc3c2)[C@H](Cc2ccccc2)C[C@@H](O)[C@@H](Cc2ccccc2)N1Cc1ccc2ccccc2c1` [Example 7T]: more than 100 µg/mL; `O=C1N(CC2CC2)[C@H](Cc2ccccc2)C[C@@H](O)[C@@H](Cc2ccccc2)N1CC1CC1` [Example 7U]: less than 10 µg/mL.
With `CS(=O)(=O)OC1C(O)C(Cc2ccccc2)N(Cc2ccc3ccccc3c2)C(=O)N(Cc2ccc3ccccc3c2)C1Cc1ccccc1` (centres unmarked) [Example 7o], the IC90 is less than 10 µg/mL.

The same assay, now with this note: Human immunodeficiency virus 1, MT2, Table 1e; read-out: IC90.
On to `O=C1N(Cc2ccccc2)C(CCc2ccccc2)[C@@H](O)[C@@H](Cc2ccccc2)N1Cc1ccccc1` (some centres unmarked) [Example 8AD], for which the IC90 was less than 10 µg/mL.
Same read-out and setting: next, `NC(=O)c1cccc(CN2C(=O)N(Cc3cccc(C(N)=O)c3)C(Cc3ccccc3)C(O)C2CCc2ccccc2)c1` (centres unmarked) [Example 8AP]: more than 100 µg/mL.
The same measure, in the same setting: next, `O=C1N(CC2CC2)C(C(F)Cc2ccccc2)[C@@H](O)[C@@H](Cc2ccccc2)N1CC1CC1` (some centres unmarked) [Example 8B]: less than 10 µg/mL.

The assay is the same for the next values; noted with them: Human immunodeficiency virus 1, MT2, Table 2A; read-out: IC90.
Turning to `O=C1N(Cc2ccc(F)cc2)C(Cc2ccccc2)C(O)C(O)C(Cc2ccccc2)N1Cc1ccc(F)cc1` (centres unmarked) [Example 2E], the IC90 is less than 10 µg/mL.
For the molecule `O=C1N(Cc2ccccc2)C(Cc2ccccc2)C(O)C(O)C(Cc2ccccc2)N1CC1CC1` (centres unmarked) [Example 2F], the concentration for an effect of 90% (IC90) is less than 10 µg/mL.

Still in this assay, the particulars now being: Human immunodeficiency virus 1, MT2, second table headed Table 2A; read-out: IC90.
With `O=C1N(Cc2ccc(F)cc2)C(Cc2ccccc2)C(O)C(O)C(Cc2ccccc2)N1Cc1ccc(F)cc1` (centres unmarked) [Example 2E], the IC90 is less than 10 µg/mL.
Still for that read-out and setting: the result for `O=C1N(Cc2ccccc2)C(Cc2ccccc2)C(O)C(O)C(Cc2ccccc2)N1CC1CC1` (centres unmarked) [Example 2F] reads less than 10 µg/mL.
